The values that follow come from publication PMC12040169 (PLOS Biology, 2025).

This data set is described as follows: in vitro. The note with it: human, hela cells, % viability.

On to `CS(=O)(=O)Nc1cc2ccccc2c(-c2ccc3c(c2)CCO3)n1` [CBK073773], for which the viability at 28.5 h, 10 µM is 90.5%.
With `CCNC(=O)Nc1cc2ccccc2c(-c2cccnc2)n1` [CBK073787], the viability at 28.5 h, 10 µM was 82.3%.
Same read-out and setting: in the case of `CCOC(=O)C1(N)CCCC1` [CBK073836C] it was 94.4%.
With `O=C1CCC(=O)N1` [CBK073851], the viability at 28.5 h, 10 µM worked out at 88.7%.
Same read-out and setting: next, `CCN(Cc1ccccc1)[C@@H](CO)Cc1ccc(OC)cc1` [CBK073856T]: 89.6%; `Cc1cc(C)nc(SCC(=O)N2c3ccccc3C(C)(c3ccc(Cl)cc3)CC2(C)C)n1` (stereo not shown) [CBK073872]: 110%; `O=S(=O)(Nc1ncc(Br)c2cccnc12)c1cccc(C(F)(F)F)c1` [CBK073884]: 112%.
Same read-out and setting: in the case of `O=S(=O)(Nc1ncc(Br)c2cccnc12)c1ccc(Oc2ccccc2)cc1` [CBK073886] it was 105%; in that of `O=c1ccc2cc(S(=O)(=O)Nc3ncc(Br)c4cccnc34)ccc2o1` [CBK073887], 94%.
As to `O=S(=O)(Nc1ncc(Br)c2cccnc12)c1ccc(Cl)c(Cl)c1` [CBK073888], the viability at 28.5 h, 10 µM was determined as 89.5%.
The same measure, in the same setting: in the case of `Cc1nn(C)c(Cl)c1S(=O)(=O)Nc1ccc2cc(Br)cnc2n1` [CBK073892] it was 78.3%; in that of `COC(=O)c1cn(Cc2ccccc2)nn1` [CBK073903], 98.1%; in that of `COc1ccc([C@@]23CC[C@@H](NC(=O)Nc4cc(F)c(F)c(F)c4)C[C@@H]2N(C)CC3)c(F)c1OC` [CBK073909T], 90.6%.
As for `Cc1ccc(C2(C)CC(C)(C)N(C(=O)CSc3nnc[nH]3)c3ccccc32)cc1` (stereo not shown) [CBK073918], the viability at 28.5 h, 10 µM came to 89.2%.
With `O=C1N=C(NC2CC3CCC2C3)SC12CCC2` (stereo not shown) [CBK073933], the viability at 28.5 h, 10 µM was 96.2%.
Same read-out and setting: in the case of `Cc1oc(-c2ccccc2)nc1C(=O)N1CCCN(C)CC1` [CBK073940C] it was 105%; in that of `O=S(=O)(Nc1cc(O[C@@H]2CCNC2)c2occc2c1)c1cc(F)c(Br)cc1F` [CBK073943C], 92%.
Same read-out and setting: next, `CC(C)(C)c1ccc(C(=O)N2CCCCC2CO)cc1` (stereo not shown) [CBK073951]: 86.4%; `COc1ccc2[nH]c3c(c2c1)CCNC31CCN(Cc2ccccc2)C1` (stereo not shown) [CBK073952C]: 86.5%.
For `O=C1CCC(=O)N1CCOc1nccnc1N1CCNCC1` [CBK074030T], the viability at 28.5 h, 10 µM was 97.6%.
As to `Cc1cccc(C(=O)N2CCCCC2C)c1` (stereo not shown) [CBK074052], the viability at 28.5 h, 10 µM was determined as 118%.
The same measure, in the same setting: in the case of `CC(C)C1OC(NCCN2CCOCC2)=NC1=O` (stereo not shown) [CBK074097T] it was 91%; in that of `CC1CCN(CC[C@H]2CCCN2S(=O)(=O)c2cccc(O)c2)CC1` [CBK074118C], 112%; in that of `Cc1cccnc1C(c1ccccc1)N(C)C(=O)C1CCN(C(=O)NCc2ccccc2)CC1` (stereo not shown) [CBK074119], 106%.
On the same count and under the same terms, next, `Cc1cccc(C(=O)N2CCCCC2CN(C)C)c1` (stereo not shown) [CBK074171]: 81.7%.
On the same count and under the same terms, in the case of `CCOC(=O)c1sc(-c2ccccc2)nc1C` [CBK074204] it was 87.5%.
Regarding `CCC1CCCCN1C(=O)c1cccs1` (stereo not shown) [CBK074214], the viability at 28.5 h, 10 µM stood at 104%.
Same read-out and setting: next, `CCC1CCCCN1C(=O)c1ccc(-c2ccccc2)s1` (stereo not shown) [CBK074215]: 96.5%; `CCOC(=O)C1CCN(C(=O)c2ccc(OC)cc2)CC1` [CBK074220]: 99.2%; `O=C(c1ccc(OC(F)F)cc1)N1CCCCC1` [CBK074223]: 86.7%.
In the case of `Oc1cc(-c2ccccc2Cl)[nH]n1` [CBK074226], the viability at 28.5 h, 10 µM was 95.6%.
The same measure, in the same setting: next, `CCCn1c(-c2ccccc2OC(F)(F)F)n[nH]c1=O` [CBK074238]: 110%; `COc1cc(OC)cc(C(=O)N[C@@H]2CC[C@@]3(c4ccc(OC)c(OC)c4)CCN(C)[C@H]3C2)c1` [CBK074242T]: 115%; `COc1ccc(C(=O)N[C@@H]2CC[C@@]3(c4ccc(OC)c(OC)c4)CCN(C)[C@H]3C2)c(OC)c1` [CBK074247T]: 91.7%.
On the same count and under the same terms, next, `COc1ccc([C@@]23CC[C@@H](NC(=O)c4ccc5occc5c4)C[C@@H]2N(C)CC3)cc1OC` [CBK074253T]: 99%; `O=C(c1cccc(C(F)(F)F)c1)N1CCCCCC1` [CBK074291]: 98.4%.
Same read-out and setting: next, `COc1ccc([C@@]23CCN(C(=O)Nc4ccc(F)c(F)c4F)C[C@@H]2CN(C)C3)cc1OC` [CBK074305T]: 106%.
Turning to `Nc1ncc(Br)nc1N[C@@H](CO)c1ccccc1` [CBK074321], the viability at 28.5 h, 10 µM amounted to 102%.
As for `CCCc1[nH]nc(O)c1Cc1ccccc1CS(=O)(=O)c1ccccc1` [CBK074347], the viability at 28.5 h, 10 µM was 87.8%.
The same measure, in the same setting: next, `Oc1nc(CN2CCN(Cc3ccc4c(c3)OCO4)CC2)nc2ccccc12` [CBK074355]: 110%.
On the same count and under the same terms, next, `O=C(CNS(=O)(=O)c1ccc(Br)cc1)N1CCN(Cc2ccc3c(c2)OCO3)CC1` [CBK074358]: 98.1%; `Cn1c(=O)c2c(nc(NCc3ccc4c(c3)OCO4)n2Cc2cccc(Cl)c2)n(C)c1=O` [CBK074359]: 96.4%; `CCCC(=O)N1CCN(Cc2ccc3c(c2)OCO3)CC1` [CBK074367]: 92.7%.
Turning to `O=C(CCCN1C(=O)c2cccc3cccc(c23)C1=O)N1CCN(Cc2ccc3c(c2)OCO3)CC1` [CBK074370], the viability at 28.5 h, 10 µM is 72.6%.
Take `COc1ccccc1OCC(O)CN1CCN(C(=O)c2ccccc2)CC1` (stereo not shown) [CBK074386C]: the viability at 28.5 h, 10 µM stood at 111%.
As to `Cc1cc(C(F)(F)F)nc2sc(C(=O)c3ccc4c(c3)OCO4)c(N)c12` [CBK074388], the viability at 28.5 h, 10 µM was determined as 94.5%.
As for `O=C(NC(NCc1ccc2c(c1)OCO2)(C(F)(F)F)C(F)(F)F)c1cccnc1` [CBK074397], the viability at 28.5 h, 10 µM amounted to 78.8%.
For the compound `COc1ccc(CN2CCN(Cc3cccnc3)CC2)cc1OC` [CBK074409G], the viability at 28.5 h, 10 µM stood at 94.1%.
For `COc1cccc(N2C(=O)CC(N3CCN(Cc4ccc5c(c4)OCO5)CC3)C2=O)c1` (stereo not shown) [CBK074411], the viability at 28.5 h, 10 µM was determined as 93.1%.
On to `O=C1c2cccc3cccc(c23)C(=O)N1CC1CCN(CC(O)COCC2COc3ccccc3O2)CC1` (stereo not shown) [CBK074412C], for which the viability at 28.5 h, 10 µM came out at 100%.
Still for that read-out and setting: in the case of `COc1c(S(=O)(=O)N2CCN(Cc3ccc4c(c3)OCO4)CC2)ccc(Cl)c1Cl` [CBK074423] it was 91.8%.
As to `C=CCOc1c(CNc2cccc(C(=O)O)c2)cccc1OC` [CBK074432], the viability at 28.5 h, 10 µM is 95.6%.
On the same count and under the same terms, next, `COc1ccc(S(=O)(=O)N2CCN(Cc3ccc4c(c3)OCO4)CC2)c(Cl)c1Cl` [CBK074433]: 102%; `O=C(/C=C/c1ccc(Br)cc1)N1CCN(Cc2ccc3c(c2)OCO3)CC1` [CBK074434]: 91.5%; `CC(Oc1ccc(Cl)cc1Cl)C(=O)N1CCN(Cc2ccc3c(c2)OCO3)CC1` (stereo not shown) [CBK074438]: 95.2%.
As for `COc1cccc(/C=N/N2C(=O)c3ccc([N+](=O)[O-])cc3NC2c2cccc(OC)c2O)c1O` (stereo not shown) [CBK074439], the viability at 28.5 h, 10 µM was determined as 91.3%.
For `CCOc1cc2c(cc1OCC)C(c1ccc(OC)c(O)c1)NCC2` (stereo not shown) [CBK074443C], the viability at 28.5 h, 10 µM was 88.7%.
On the same count and under the same terms, in the case of `N#CCC(=O)N1CCN(Cc2ccc3c(c2)OCO3)CC1` [CBK074447] it was 88.7%; in that of `COc1cc(CN2CCN(Cc3cccc4ccccc34)CC2)c([N+](=O)[O-])cc1OC` [CBK074450G], 106%.
For `COc1ccc(NCc2cc(I)c(OCc3ccccc3)c(OC)c2)cc1` [CBK074452], the viability at 28.5 h, 10 µM was determined as 106%.
`COc1ccc(-c2csc(Nc3ccc(N)cc3)n2)cc1OC` [CBK074456]: the viability at 28.5 h, 10 µM came to 83.4%.
As to `Cc1ccc(CNc2oc(COc3ccc(Br)cc3)nc2C#N)cc1` [CBK074467], the viability at 28.5 h, 10 µM came out at 99.5%.
On the same count and under the same terms, next, `C=CCOc1ccc(CNc2cccc(C(=O)O)c2)cc1OC` [CBK074468]: 98.5%; `COc1cc(CNc2ccc(N3CCCCC3)cc2)ccc1OCc1ccccc1F` [CBK074472]: 95.5%.
Still for that read-out and setting: in the case of `COc1ccc(CNCc2cccc(OC)c2OC)cc1Br` [CBK074479] it was 113%.
Still for that read-out and setting: in the case of `COc1ccc(CN2CCN(S(C)(=O)=O)CC2)c(OC)c1OC` [CBK074491] it was 102%.
Take `c1cc2c(cc1CCNCc1ccc3c(c1)OCO3)OCO2` [CBK074501G]: the viability at 28.5 h, 10 µM (bulk resorufin, single well) came out at 98.9%.
For the compound `COc1cc(OC)c(OC)cc1CN1CCN(Cc2ccco2)CC1` [CBK074509G], the viability at 28.5 h, 10 µM turned out to be 92.9%.
Same read-out and setting: in the case of `COc1cc(CNc2ccc(N3CCOCC3)cc2)ccc1OCc1ccc(Cl)cc1Cl` [CBK074516] it was 93.1%.
Still for that read-out and setting: in the case of `COC(=O)c1ccc(CN2CCN(CCN3C(=O)c4cccc5cccc(c45)C3=O)CC2)cc1` [CBK074518] it was 88.8%.
`COc1cc(CN2CCN(Cc3ccco3)CC2)cc(OC)c1OC` [CBK074520G]: the viability at 28.5 h, 10 µM amounted to 88.2%.
The same measure, in the same setting: in the case of `COc1ccc(CN2CCN(C(=O)c3cccc(F)c3)CC2)c(OC)c1OC` [CBK074523] it was 95.5%; in that of `CCOc1cccc(CNc2ccc(O)cc2)c1OCc1ccc(Cl)cc1Cl` [CBK074528], 106%; in that of `O=C1CC(N2CCN(Cc3ccc4c(c3)OCO4)CC2)C(=O)N1CCc1ccccc1` (stereo not shown) [CBK074541], 93.7%.
On the same count and under the same terms, in the case of `O=C1CC(N2CCN(Cc3ccc4c(c3)OCO4)CC2)C(=O)N1c1ccc(Cl)c(Cl)c1` (stereo not shown) [CBK074549] it was 99.4%.
The same measure, in the same setting: in the case of `O=C1CC(N2CCN(Cc3ccc4c(c3)OCO4)CC2)C(=O)N1c1cc(Cl)cc(Cl)c1` (stereo not shown) [CBK074554] it was 94.5%; in that of `COc1ccc(CCN2C(=O)CC(N3CCN(Cc4ccc5c(c4)OCO5)CC3)C2=O)cc1OC` (stereo not shown) [CBK074555], 88%; in that of `O=[N+]([O-])c1ccc(CN2CCN(Cc3ccc4c(c3)OCO4)CC2)o1` [CBK074557], 88.7%.
As to `CSc1ncc(CNCc2ccc3c(c2)OCO3)c(N)n1` [CBK074563], the viability at 28.5 h, 10 µM was found to be 89.6%.

By viability is commonly meant a read-out of living cells in per cent, often relative to untreated cells.
